According to publication PMC10856354 (International Journal of Molecular Sciences, 2024):
Where a SMILES comes first, the peptide text is derived from it. Bridges are numbered along the chain shown (N, C = ends). [ ]: non-standard residue; d: D form. The star is where a group is joined. DOTA = O=C(O)CN1CCN(CC(=O)O)CCN(CC(=O)*)CCN(CC(=O)O)CC1

Experiments:
hSST1R = molecular target: T1, hSST1R (Homo sapiens, UniProt P30872); assay: Receptor autoradiography competition binding vs [125I]I-[LTT]SS28
T1 construct: expressed in transfected cells; host or cells: CHO cells, gift of Drs; T. Reisine and G. Singh
Protocol: (§1) Cell membrane pellets were prepared from CHO-hSST1R cells, CCL39-hSST2R, CCL39-hSST3R, and CCL39-hSST4R cells, and HEK293-hSST2R cells and stored at −80 °C. Receptor autoradiography was performed on 20-μm-thick cryostat (Microm HM 500, Walldorf, Germany) sections of the membrane pellets mounted on microscope slides, and then stored at −20 °C, as previously described. […] The incubated sections were washed twice for 5 min in cold 170 mmol/L Tris-HCl (pH 8.2) containing 0.25% BSA. After a brief dip in 170 mmol/L Tris-HCl (pH 8.2), the sections were dried quickly and exposed for 1 week to Kodak BioMax MR film (Rochester, NY, USA). IC50 values were calculated after quantification of the data using a computer-assisted image processing system as described previously. Tissue standards (Autoradiographic [^125I] and/or [^14C] microscales, GE Healthcare; Little Chalfont, UK) that contain known amounts of isotope, cross-calibrated to tissue-equivalent ligand concentrations, were used for quantification.

hSST2R [1] = molecular target: T2, hSST2R (Homo sapiens, UniProt P30874); assay: as above
T2 construct: expressed in transfected cells
Protocol: as §1

hSST3R = molecular target: T3, hSST3R (Homo sapiens, UniProt P32745); assay: as above
T3 construct: expressed in transfected cells; host or cells: CCL39 cells, gift of Dr. D. Hoyer (Novartis Pharma)
Protocol: as §1

hSST5R = molecular target: T4, hSST5R (Homo sapiens, UniProt P35346); assay: as above
T4 construct: expressed in transfected cells

hSST2R [2] = molecular target: T2, hSST2R; assay: Immunofluorescence microscopy-based internalization assay in HEK293-hSST2R cells; type: cell-based; details: for ligand-induced hSST2R internalization (agonism): 30 min at 37 °C
Protocol: Figure 3 Agonist stimulated hSST2R-internalization in HEK293-hSST2R cells determined by immunofluorescence microscopy.
An immunofluorescence microscopy-based internalization assay for hSST2R was performed in HEK293-hSST2R cells, grown on poly-DLys (20 μg/mL) (Sigma-Aldrich, St. Louis, MO, USA) coated 35-mm four-well plates (Cellstar, Greiner Bio-One GmbH, Frickenhausen, Germany). […] HEK293-hSST2R cells treated with vehicle alone were used as a negative control. The cells were then rinsed twice with PS (100 mM phosphate buffer containing 0.15 M sucrose), fixed and permeabilized for 7 min with cold methanol (−20 °C), rinsed twice with PS, and then blocked for 60 min at room temperature with PS containing 0.1% BSA. Next, cells were incubated for 60 min at room temperature with the hSST2R-specific primary antibody R2-88 (provided by Dr. A. Schönbrunn, Houston, TX, USA) diluted 1:1000 in PS and washed 3 × 5 min with PS containing 0.1% BSA. The cells were incubated for 60 min at room temperature in the dark with the secondary antibody Alexa Fluor 488 goat anti-rabbit IgG (H+ L) (Molecular Probes, Inc., Eugene, OR, USA) diluted in PS (1:600), washed 3 × 5 min with PS containing 0.1% BSA, embedded with PS/glycerol 1:1, and covered with a glass cover slip. The cells were imaged using a Leica DM RB immunofluorescence microscope (Leica, Deerfield, IL, USA) and an Olympus DP10 camera (Olympus Corporation, Shinjuku, Tokyo, Japan).

T2 sequence (P30874 whole entry): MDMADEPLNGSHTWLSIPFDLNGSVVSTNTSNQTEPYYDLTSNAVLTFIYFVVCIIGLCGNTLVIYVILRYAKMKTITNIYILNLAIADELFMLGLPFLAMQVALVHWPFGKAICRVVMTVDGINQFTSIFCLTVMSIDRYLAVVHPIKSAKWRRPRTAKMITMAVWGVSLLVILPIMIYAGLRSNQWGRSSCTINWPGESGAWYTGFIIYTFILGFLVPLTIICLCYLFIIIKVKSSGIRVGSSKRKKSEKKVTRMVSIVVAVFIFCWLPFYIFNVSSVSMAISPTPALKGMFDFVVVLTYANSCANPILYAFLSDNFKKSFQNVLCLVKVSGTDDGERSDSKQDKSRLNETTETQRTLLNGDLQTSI
T4 sequence (P35346 whole entry): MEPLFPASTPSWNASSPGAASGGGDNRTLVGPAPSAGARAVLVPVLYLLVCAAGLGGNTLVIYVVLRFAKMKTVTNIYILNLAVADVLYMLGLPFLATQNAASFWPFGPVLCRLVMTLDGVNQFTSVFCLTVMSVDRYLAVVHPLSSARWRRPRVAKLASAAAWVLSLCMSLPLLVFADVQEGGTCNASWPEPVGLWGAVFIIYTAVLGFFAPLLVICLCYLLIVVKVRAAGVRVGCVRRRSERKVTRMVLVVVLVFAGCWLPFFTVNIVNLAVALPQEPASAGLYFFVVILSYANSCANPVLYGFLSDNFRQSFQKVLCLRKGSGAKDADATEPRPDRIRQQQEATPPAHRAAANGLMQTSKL
T1 sequence (P30872 whole entry): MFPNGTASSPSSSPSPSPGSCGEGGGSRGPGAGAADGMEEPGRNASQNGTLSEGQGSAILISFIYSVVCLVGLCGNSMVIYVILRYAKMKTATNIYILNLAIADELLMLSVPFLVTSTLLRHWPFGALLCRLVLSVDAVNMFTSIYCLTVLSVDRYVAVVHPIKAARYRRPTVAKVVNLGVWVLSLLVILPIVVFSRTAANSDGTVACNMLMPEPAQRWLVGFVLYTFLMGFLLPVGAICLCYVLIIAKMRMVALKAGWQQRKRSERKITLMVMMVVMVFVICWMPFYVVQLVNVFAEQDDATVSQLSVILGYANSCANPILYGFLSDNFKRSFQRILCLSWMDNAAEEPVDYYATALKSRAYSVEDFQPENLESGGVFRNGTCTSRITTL
T3 sequence (P32745 whole entry): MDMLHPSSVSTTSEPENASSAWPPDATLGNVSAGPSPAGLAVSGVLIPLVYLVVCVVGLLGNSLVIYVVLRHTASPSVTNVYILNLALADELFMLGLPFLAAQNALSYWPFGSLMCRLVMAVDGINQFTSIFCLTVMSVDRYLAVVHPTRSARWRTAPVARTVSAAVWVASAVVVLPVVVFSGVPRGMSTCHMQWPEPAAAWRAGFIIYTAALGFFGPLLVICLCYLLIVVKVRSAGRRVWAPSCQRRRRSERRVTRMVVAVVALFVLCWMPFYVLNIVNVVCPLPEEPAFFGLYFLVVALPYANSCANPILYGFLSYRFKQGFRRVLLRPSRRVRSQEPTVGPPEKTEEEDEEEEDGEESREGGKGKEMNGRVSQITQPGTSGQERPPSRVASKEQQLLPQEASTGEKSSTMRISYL

Row | Compound | IC50 (hSST1R) | IC50 (hSST2R [1]) | IC50 (hSST3R) | IC50 (hSST5R) | ligand-induced hSST2R internalization (agonism) (hSST2R [2]; 1 µM) | prevention of SS14-induced hSST2R internalization (antagonism) (hSST2R [2]; 10 µM test peptide + 10 nM SS14, 30 min at 37 °C) | ligand-induced hSST2R internalization (agonism) (hSST2R [2]; 10 µM) | drop in binding affinity for hSST1R compared with native hormone (hSST1R; vs SS14) | lower affinity for hSST2R compared with AT2S (hSST2R [1]; vs AT2S) | drop in binding affinity for hSST2R compared with native hormone (hSST2R [1]; vs SS14) | lower affinity for hSST3R compared with AT2S (hSST3R; vs AT2S) | drop in binding affinity for hSST3R compared with native hormone (hSST3R; vs SS14) | lower affinity for hSST5R compared with AT2S (hSST5R; vs AT2S) | drop in binding affinity for hSST5R compared with native hormone (hSST5R; vs SS14)
1 | C[C@H](NC(=O)CN1CCN(CC(=O)O)CCN(CC(=O)O)CCN(CC(=O)O)CC1)C(=O)NCC(=O)N[C@H]1CSSC[C@@H](C(=O)O)NC(=O)[C@H](CO)NC(=O)[C@H]([C@@H](C)O)NC(=O)[C@@H]2CSSC[C@H](NC(=O)[C@H](CC(N)=O)NC(=O)[C@H](CCCCN)NC1=O)C(=O)N[C@@H](Cc1ccccc1)C(=O)N[C@H](Cc1c[nH]c3ccccc13)C(=O)N[C@@H](CCCCN)C(=O)N[C@@H]([C@@H](C)O)C(=O)N2 [AT5S, DOTA-Ala^1-Gly^2-c[Cys^3-Lys^4-Asn^5-c[Cys^6-Phe^7-DTrp^8-Lys^9-Thr^10-Cys^11]-Thr^12-Ser^13-Cys^14]] ({DOTA}-AGCKNCF[dW]KTCTSC-OH; disulfide 3-14, 6-11) | > 1000 nM | 616 ± 148 nM | > 1000 nM | > 1000 nM | failed to trigger the hSST2R internalization | failed to prevent the hSST2R internalization | failed to trigger the hSST2R internalization | – | – | – | – | – | – | –
2 | C[C@H](NC(=O)CN1CCN(CC(=O)O)CCN(CC(=O)O)CCN(CC(=O)O)CC1)C(=O)NCC(=O)N[C@H]1CSSC[C@@H](C(=O)O)NC(=O)[C@H](CO)NC(=O)[C@@H]2CSSC[C@H](NC(=O)[C@H](CCCCN)NC1=O)C(=O)N[C@@H](Cc1ccccc1)C(=O)N[C@@H](Cc1ccccc1)C(=O)N[C@H](Cc1c[nH]c3ccccc13)C(=O)N[C@@H](CCCCN)C(=O)N[C@@H]([C@@H](C)O)C(=O)N[C@@H](Cc1ccccc1)C(=O)N2 [AT6S, DOTA-Ala^1-Gly^2-c[Cys^3-Lys^4-c[Cys^5-Phe^6-Phe^7-DTrp^8-Lys^9-Thr^10-Phe^11-Cys^12]-Ser^13-Cys^14]] ({DOTA}-AGCKCFF[dW]KTFCSC-OH; disulfide 3-14, 5-12) | 12 ± 3.3 nM | 6.3 ± 0.6 nM | 9.7 ± 3.6 nM | 26 ± 7 nM | behaved as a potent agonist | – | – | < 6 fold | < 4 fold | 9 fold | ≈ 4 fold | ≈ 3 fold | < 2 fold | < 6 fold
